Each structure is given as a SMILES string. pIC50: −log10 of the molar value. Where a name gives a salt, the structure may show the parent alone. Bounds are passed on as bounds.

The target of one assay is T1, Full length human recombinant HDAC8 protein (Homo sapiens, UniProt Q9BY41).
T1 construct: Full length human recombinant HDAC8 protein was expressed in baculoviral system; made in house
T1 sequence (Q9BY41 1-377): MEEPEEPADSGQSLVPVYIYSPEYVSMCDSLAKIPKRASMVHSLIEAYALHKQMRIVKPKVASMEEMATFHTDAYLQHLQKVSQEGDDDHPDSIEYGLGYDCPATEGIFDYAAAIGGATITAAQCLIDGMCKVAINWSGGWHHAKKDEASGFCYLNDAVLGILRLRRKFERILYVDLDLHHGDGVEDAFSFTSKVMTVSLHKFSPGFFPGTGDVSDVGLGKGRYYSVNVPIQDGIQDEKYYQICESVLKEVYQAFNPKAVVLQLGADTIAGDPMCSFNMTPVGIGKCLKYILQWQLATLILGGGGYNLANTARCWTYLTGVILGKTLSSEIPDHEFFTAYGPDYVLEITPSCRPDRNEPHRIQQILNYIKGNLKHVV
Nature of the assay: In vitro histone deacetylase assay: enzymatic HDAC8 electrophoretic mobility shift assay. It counts as biochemical. To be noted: electrophoretic mobility shift assay; enzyme 1 nM; 2 μM fluorescently labeled peptide substrate RHKK(Ac)-NH2; 25° C.; 12 concentrations; read-out: HDAC8 IC50. On the procedure: The enzymatic HDAC8 assay was performed using electrophoretic mobility shift assay. Full length human recombinant HDAC8 protein was expressed in baculoviral system and purified by affinity chromatography. The enzymatic reactions were assembled in 384 well plates in a total volume of 25 μL in a reaction buffer composing: 100 mM HEPES, pH7.5, 25 mM KCl, 0.1% bovine serum albumin, 0.01% Triton X-100, 1% DMSO (from compounds) 2 μM of the fluorescently labeled peptide substrate and enzyme. The enzyme was added at a final concentration of 1 nM. The peptide substrate RHKK(Ac)—NH2 was used. The compounds were tested at 12 concentrations spaced by 3× dilution intervals. Negative control samples (0%-inhibition in the absence of inhibitor) and positive control samples (100%-inhibition) were assembled in replicates of four in each assay plate. The reactions were incubated at 25° C. and quenched by the addition of 45 μL of termination buffer (100 mM HEPES, pH 7.5, 0.01% Triton X-100, 0.05% SDS).
The terminated assay plates were analyzed on LabChip® 3000 microfluidic electrophoresis instrument (Perkin Elmer/Caliper Life Sciences). The fluorescence intensity of the electrophoretically separated de-acetylated product and substrate peptide was measured. Activity in each sample was determined as the product to sum ratio (PSR): P/(S+P), where P is the peak height of the product peptide and S is the peak height of the substrate peptide. Percent inhibition (Pinh) is determined using the following equation: Pinh=(PSR0%−PSRinh)/(PSR0%−PSR100%)*100, where PSRinh is the product sum ratio in the presence of inhibitor, PSR0% is the average product sum ration in the absence of inhibitor and PSR100% is the average product sum ratio in 100%-inhibition control samples. The IC50 values of inhibitors were determined by fitting the %-inhibition curves with 4 parameter dose-response model using XLfit 4 software.
(A gel shift assay detects complexes by their altered migration in electrophoresis.)
Usually pIC50 stands for −log10 of the IC50, conventionally taken in molar units. For the compound `COc1ccc(CN2C(=O)[C@@H](C)Oc3ccc(C(=O)NO)cc32)cc1` (single isomer, unassigned) [Compound I-162], the pIC50 is 7.00 to 7.60. The same measure, in the same setting: the value for `CN1CC(C(=O)NC2CCOCC2)Oc2ccc(C(=O)NO)cc21` (stereo not drawn) [Compound I-1, N^6-hydroxy-4-methyl-N^2-(tetrahydro-2H-pyran-4-yl)-3,4-dihydro-2H-benzo[b][1,4]oxazine-2,6-dicarboxamide hydrochloride] was < 6.00; that for `O=C(NO)c1ccc2c(c1)N(Cc1ccccc1)CC(C(=O)NC1CCOCC1)O2` (stereo not drawn) [Compound I-2, 4-benzyl-N^6-hydroxy-N^2-(tetrahydro-2H-pyran-4-yl)-3,4-dihydro-2H-benzo[b][1,4]oxazine-2,6-dicarboxamide] was 7.00 to 7.60. With `CN1CC(C(=O)N2CC3(CC3)c3ccccc32)Oc2ccc(C(=O)NO)cc21` (stereo not drawn) [Compound I-3, N-hydroxy-4-methyl-2-(spiro[cyclopropane-l,3′-indoline]-1′-carbonyl)-3,4-dihydro-2H-benzo[b][1,4]oxazine-6-carboxamide hydrochloride], the negative logarithm of the IC50 (pIC50) is 6.00 to 7.00. `O=C(NO)c1ccc2c(c1)N(Cc1ccccc1)CC(C(=O)N1CC3(CC3)c3ccccc31)O2` (stereo not drawn) [Compound I-4, 4-benzyl-N-hydroxy-2-(spiro[cyclopropane-l,3′-indoline]-1′ carbonyl)-3,4-dihydro-2H-benzo[b][1,4]oxazine-6-carboxamide hydrochloride]: the pIC50 is 7.00 to 7.60.

Consider `CN1CC(C(=O)NCc2ccccc2)Oc2ccc(C(=O)NO)cc21` (stereo not drawn) [Compound I-5, N^2-benzyl-N^6-hydroxy-4-methyl-3,4-dihydro-2H-benzo[b][1,4]oxazine-2,6-dicarboxamide hydrochloride], for which the pIC50 is 7.00 to 7.60. As to `O=C(NO)c1ccc2c(c1)N(Cc1ccccc1)CC(C(=O)NCc1ccccc1)O2` (stereo not drawn) [Compound I-6, N^2,4-dibenzyl-N^6-hydroxy-3,4-dihydro-2H-benzo[b][1,4]oxazine-2,6-dicarboxamide], the negative-log IC50 (pIC50) is 7.00 to 7.60. Turning to `CN1CC(C(=O)NC2CCOCC2)Oc2cc(C(=O)NO)ccc21` (stereo not drawn) [Compound I-7, N^7-hydroxy-4-methyl-N^2-(tetrahydro-2H-pyran-4-yl)-3,4-dihydro-2H-benzo[b][1,4]oxazine-2,7-dicarboxamide], the negative-log IC50 (pIC50) was 6.00 to 7.00.

In the case of `O=C(NO)c1ccc2c(c1)OC(C(=O)NC1CCOCC1)CN2Cc1ccccc1` (stereo not drawn) [Compound I-8, 4-benzyl-N^7-hydroxy-N^2-(tetrahydro-2H-pyran-4-yl)-3,4-dihydro-2H-benzo[b][1,4]oxazine-2,7-dicarboxamide], the negative-log IC50 (pIC50) is 6.00 to 7.00. The same measure, in the same setting: the value for `CN1CC(C(=O)N2CC3(CC3)c3ccccc32)Oc2cc(C(=O)NO)ccc21` (stereo not drawn) [Compound I-9, N-hydroxy-4-methyl-2-(spiro[cyclopropane-1,3′-indoline]-1′-carbonyl)-3,4-dihydro-2H-benzo[b][1,4]oxazine-7-carboxamide] was > 7.60. As for `O=C(NO)c1ccc2c(c1)OC(C(=O)N1CC3(CC3)c3ccccc31)CN2Cc1ccccc1` (stereo not drawn) [Compound I-10, 4-benzyl-N-hydroxy-2-(spiro[cyclopropane-1,3′-indoline]-1′-carbonyl)-3,4-dihydro-2H-benzo[b][1,4]oxazine-7-carboxamide], the pIC50 is 7.00 to 7.60. On the same count and under the same terms, under `CN1CC(C(=O)NCc2ccccc2)Oc2cc(C(=O)NO)ccc21` (stereo not drawn) [Compound I-11, N^2-benzyl-N^7-hydroxy-4-methyl-3,4-dihydro-2H-benzo[b][1,4]oxazine-2,7-dicarboxamide] stands 7.00 to 7.60; under `O=C(NO)c1ccc2c(c1)OC(C(=O)NCc1ccccc1)CN2Cc1ccccc1` (stereo not drawn) [Compound I-12, N^2,4-dibenzyl-N^7-hydroxy-3,4-dihydro-2H-benzo[b][1,4]oxazine-2,7-dicarboxamide], 6.00 to 7.00. For `COCCn1c(N2CCCc3c(C(=O)NO)cccc32)nc2ccccc21` [Compound I-13, N-hydroxy-1-(1-(2-methoxyethyl)-1H-benzo[d]imidazol-2-yl)-1,2,3,4-tetrahydroquinoline-5-carboxamide], the pIC50 was < 6.00. For `O=C(NO)c1cccc2c1CCCN2c1nc2ccccc2[nH]1` [Compound I-14, 1-(1H-1,3-benzodiazol-2-yl)-N-hydroxy-1,2,3,4-tetrahydroquinoline-5-carboxamide], the pIC50 was < 6.00. On to `O=C(NO)c1ccc2c(c1)N(Cc1cccc(S(=O)(=O)C(F)(F)F)c1)CCS2(=O)=O` [Compound I-15, N-hydroxy-4-(3-((trifluoromethyl)sulfonyl)benzyl)-3,4-dihydro-2H-benzo[b][1,4]thiazine-6-carboxamide-1,1-dioxide], for which the pIC50 is > 7.60. On the same count and under the same terms, the value for `CC(c1ccc(S(C)(=O)=O)cc1)N1CCS(=O)(=O)c2ccc(C(=O)NO)cc21` (stereo not drawn) [Compound I-16, N-hydroxy-4-(1-(4-(methylsulfonyl)phenyl)ethyl)-3,4-dihydro-2H-benzo[b][1,4]thiazine-6-carboxamide-1,1-dioxide] was > 7.60. Same read-out and setting: under `O=C(NO)c1ccc2c(c1)N(Cc1ccc(S(=O)(=O)C(F)(F)F)cc1)C(=O)CO2` [Compound I-17, N-hydroxy-3-oxo-4-(4-((trifluoromethyl)sulfonyl)benzyl)-3,4-dihydro-2H-benzo[b][1,4]oxazine-6-carboxamide] stands > 7.60. The same measure, in the same setting: under `O=C(NO)c1ccc2c(c1)N(Cc1cccc(S(=O)(=O)C(F)(F)F)c1)C(=O)CO2` [Compound I-18, N-hydroxy-3-oxo-4-(3-((trifluoromethyl)sulfonyl)benzyl)-3,4-dihydro-2H-benzo[b][1,4]oxazine-6-carboxamide] stands 6.00 to 7.00. `O=C(NO)c1ccc2c(c1)N(Cc1ccc(OC(F)(F)F)cc1)CCO2` [Compound I-19, N-hydroxy-4-(4-(trifluoromethoxy)benzyl)-3,4-dihydro-2H-benzo[b][1,4]oxazine-6-carboxamide]: the pIC50 was 7.00 to 7.60. On the same count and under the same terms, the value for `O=C(NO)c1ccc2c(c1)N(Cc1cn3ccsc3n1)CCO2` [Compound I-21, N-hydroxy-4-(imidazo[2,1-b]thiazol-6-ylmethyl)-3,4-dihydro-2H-benzo[b][1,4]oxazine-6-carboxamide] was 6.00 to 7.00.

The target in a further assay is T2, Recombinant N-terminal GST tag full-length human HDAC8 (Homo sapiens, UniProt Q9BY41).
T2 construct: Recombinant N-terminal GST tag full-length human HDAC8; purchased SignalChem H90-30G-1000; host or cells: baculovirus in Sf9 insect cells
T2 sequence (Q9BY41 1-377): T1 sequence (Q9BY41 1-377)
Briefly: HDAC8 probe binding assay, time resolved fluorescence (TRF) format. As to conditions: compounds grouped by IC50 range (Table 2). In short, it runs like this: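 Probe-binding TRF assay using full-length N-GST human HDAC8 expressed in baculovirus-infected Sf9 cells, incubated 16 h at room temperature and read at 340 nm excitation, 485/535 nm emission. Percent inhibition was normalised to no-enzyme and DMSO controls. IC50 was obtained by 4-parameter logistic fit.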
`Cc1ccc2nc(CN3C(=O)COc4ccc(C(=O)NO)cc43)cn2c1` [Compound I-365, N-hydroxy-4-((6-methylimidazo[1,2-a]pyridin-2-yl)methyl)-3-oxo-3,4-dihydro-2H-benzo[b][1,4]oxazine-6-carboxamide]: the pIC50 is 7.00 to 7.60.

In the case of `O=C(NO)c1ccc2c(c1)N(Cc1cn3cc(F)ccc3n1)C(=O)CO2` [Compound I-368, 4-((6-fluoroimidazo[1,2-a]pyridin-2-yl)methyl)-N-hydroxy-3-oxo-3,4-dihydro-2H-benzo[b][1,4]oxazine-6-carboxamide], the pIC50 is 7.00 to 7.60. Consider `CC(C)NC(=O)c1ccc(CN2C(=O)COc3ccc(C(=O)NO)cc32)cc1` [Compound I-369, N-hydroxy-4-(4-(isopropylcarbamoyl)benzyl)-3-oxo-3,4-dihydro-2H-benzo[b][1,4]oxazine-6-carboxamide], for which the negative logarithm of the IC50 (pIC50) is 7.00 to 7.60. Turning to `COc1ccc(F)c(CN2C(=O)COc3ccc(C(=O)NO)cc32)c1` [Compound I-371, 4-(2-fluoro-5-methoxybenzyl)-N-hydroxy-3-oxo-3,4-dihydro-2H-benzo[b][1,4]oxazine-6-carboxamide], the pIC50 is ≥ 7.60.

As for `N#Cc1ccc(CN2C(=O)COc3ccc(C(=O)NO)cc32)c(Cl)c1` [Compound I-372, 4-(2-chloro-4-cyanobenzyl)-N-hydroxy-3-oxo-3,4-dihydro-2H-benzo[b][1,4]oxazine-6-carboxamide], the pIC50 is ≥ 7.60. In the case of `N#Cc1ccc(Cl)c(CN2C(=O)COc3ccc(C(=O)NO)cc32)c1` [Compound I-373, 4-(2-chloro-5-cyanobenzyl)-N-hydroxy-3-oxo-3,4-dihydro-2H-benzo[b][1,4]oxazine-6-carboxamide], the negative logarithm of the IC50 (pIC50) is ≥ 7.60.

Source of the values: patent publication US10370343B2, “[6,6] Fused bicyclic HDAC8 inhibitors” (FORMA Therapeutics, Inc., priority 2015, dated 2019).
